Test results: patent publication US20250188092A1, “RIFAMYCIN ANALOGS” (THE REGENTS OF THE UNIVERSITY OF MICHIGAN, priority 2021, published 2025)

Tests used:
VERO cells (ATCC CRL-81) = assay: Vero cell toxicity; format: cell-based; details: Chlorocebus sabaeus, Vero; 72 hours exposure
Description: Cytotoxicity for a mammalian cell line was determined by exposing VERO cells (ATCC CRL-81) to serial dilutions of test compounds for 72 hours, followed by addition of resazurin and measurement of fluorescence after 4 hours incubation (Choules, et al., Antimnicrob. Agents Chemother. 2019, 63, e02204-02218).

E. coli WT RNAP = biological target: T1, E. coli WT RNAP (Escherichia coli, UniProt P0A8V2); assay: biochemical
T1 construct: made in house

MTB H37Rv ATCC 27294 = assay: MIC, microplate Alamar Blue assay (MABA); format: cell-based, Mycobacterium tuberculosis
DPX2 cells = details: for DPX2 Viability @ 6.25 μM: 24 h; for DPX2 Viability @ 25 μM: human
[1] = biological target: T2, E. coli D516V (RIF^R) RNAP (Escherichia coli, UniProt P0A8V2, D516V); assay: biochemical
T2 construct: made in house

[2] = biological target: T3, E. coli S531L (RIF^R) RNAP (Escherichia coli, UniProt P0A8V2, S531L); assay: biochemical
T3 construct: made in house

[3] = Mycobacterium tuberculosis, MTB H37Rv ATCC 27294, microplate Alamar Blue assay, lowest concentration giving ≥90% reduction in fluorescence

SMILES	IC50 (VERO cells (ATCC CRL-81)) [µM]	IC50 (E. coli WT RNAP) [µM]	MIC90 MABA Rel to RMP (MTB H37Rv ATCC 27294)	MIC90 (MTB H37Rv ATCC 27294; [3]) [µM]	DPX2 Viability @ 6.25 μM (DPX2 cells) [%]	DPX2 Viability @ 25 μM (DPX2 cells) [%]	IC50 [1] [µM]	IC50 [2] [µM]	MIC (MTB H37Rv ATCC 27294; Mycobacterium tuberculosis, MTB H37Rv ATCC 27294, microplate Alamar Blue assay, lowest concentration giving ≥90% reduction in fluorescence, read-out: MIC90 MABA) [µM]	DPX2 Viability (DPX2 cells; 21 μM) [%]
CO[C@H]1/C=C/O[C@@]2(C)Oc3c(C)c(O)c4c(=O)c(c5oc6cccc(OCc7cccc(CN8CCN(C(C)=O)CC8)c7)c6nc-5c4c3C2=O)NC(=O)/C(C)=C\C=C\[C@H](C)[C@H](O)[C@@H](C)[C@@H](O)[C@@H](C)[C@H](OC(C)=O)[C@@H]1C [Compound 11c, (7S,9E,11S,12R,13S,14R,15R,16R,17S,18S,19E,21Z)-32-({3-[(4-Acetylpiperazin-1-yl)methyl]phenyl}methoxy)-2,15,17-trihydroxy-11-methoxy-3,7,12,14,16,18,22-heptamethyl-6,23,37-trioxo-8,27,38-trioxa-24,34-diazahexacyclo-[23.11.1.1^4,7.0^5,36.0^26,35.0^28,33]octatriaconta-1(36)2,4,9,19,21,25,28,30,32,34-undecaen-13-yl acetate]	> 8	0.019	1.4	0.058	103	70	8.8	330	–	–
CO[C@H]1/C=C/O[C@@]2(C)Oc3c(C)c(O)c4c(=O)c(c5oc6cccc(OCc7cccc(CN8CCN(C(=O)Cc9ccccc9)CC8)c7)c6nc-5c4c3C2=O)NC(=O)/C(C)=C\C=C\[C@H](C)[C@H](O)[C@@H](C)[C@@H](O)[C@@H](C)[C@H](OC(C)=O)[C@@H]1C [Compound 11g, (7S,9E,11S,12R,13S,14R,15R,16R,17S,18S,19E,21Z)-2,15,17-Trihydroxy-11-methoxy-3,7,12,14,16,18,22-heptamethyl-6,23,37-trioxo-32-[(3-{[4-(2-phenylacetyl)-piperazin-1-yl]methyl}phenyl)methoxy]-8,27,38-trioxa-24,34-diazahexacyclo[23.11.1.1^4,7.0^5,36.0^26,35.0^28,33]octatriaconta-1(36)2,4,9,19,21,25,28,30,32,34-undecaen-13-yl acetate]	> 32	< 0.005	0.30	0.011	88	70	0.58	28	–	–
CO[C@H]1/C=C/O[C@@]2(C)Oc3c(C)c(O)c4c(=O)c(c5oc6cccc(OCc7ccc(CN8CCN(C(=O)CN9CCOCC9)CC8)cc7)c6nc-5c4c3C2=O)NC(=O)/C(C)=C\C=C\[C@H](C)[C@H](O)[C@@H](C)[C@@H](O)[C@@H](C)[C@H](OC(C)=O)[C@@H]1C [Compound 16c, (7S,9E,11S,12R,13S,14R,15R,16R,17S,18S,19E,21Z)-2,15,17-Trihydroxy-11-methoxy-3,7,12,14,16,18,22-heptamethyl-32-{[4-({4-[2-(morpholin-4-yl)acetyl]piperazin-1-yl}methyl)phenyl]methoxy}-6,23,37-trioxo-8,27,38-trioxa-24,34-diazahexacyclo[23.11.1.1^4,7.0^5,36.0^26,35.0^28,33]octatriaconta-1(36)2,4,9,19,21,25,28,30,32,34-undecaen-13-yl acetate]	> 8	0.005	0.51	0.019	96	55	10	92	–	–
CCC(=O)N1CCN(Cc2cccc(COc3cccc4oc5c6c(=O)c7c(O)c(C)c8c(c7c-5nc34)C(=O)[C@@](C)(O/C=C/[C@H](OC)[C@@H](C)[C@@H](OC(C)=O)[C@H](C)[C@H](O)[C@H](C)[C@@H](O)[C@@H](C)/C=C/C=C(/C)C(=O)N6)O8)c2)CC1 [Compound 11d, (7S,9E,11S,12R,13S,14R,15R,16R,17S,1S,19E,21Z)-2,15,17-Trihydroxy-11-methoxy-3,7,12,14,16,18,22-heptamethyl-6,23,37-trioxo-32-{(3-[(4-propanoylpiperazin-1-yl)methyl]phenyl}methoxy)-8,27,38-trioxa-24,34-diazahexacyclo[23.11.1.1^4,7.0^5,36.0^26,35.0^28,33]octatriaconta-1(36)2,4,9,19,21,25,28,30,32,34-undecaen-13-yl acetate]	19.1	< 0.005	0.43	0.016	77	33	0.9	94	–	–
CO[C@H]1/C=C/O[C@@]2(C)Oc3c(C)c(O)c4c(=O)c(c5oc6cccc(OCCCCN7CCN(C(=O)CN8CCOCC8)CC7)c6nc-5c4c3C2=O)NC(=O)/C(C)=C\C=C\[C@H](C)[C@H](O)[C@@H](C)[C@@H](O)[C@@H](C)[C@H](OC(C)=O)[C@@H]1C [Compound 5e, (7S,9E,11S,12R,13S,14R,15R,16R,17S,18S,19E,21Z)-2,15,17-Trihydroxy-11-methoxy-3,7,12,14,16,18,22-heptamethyl-32-(4-{4-[2-(morpholin-4-yl)acetyl]piperazin-1-yl}butoxy)-6,23,37-trioxo-8,27,38-trioxa-24,34-diazahexacyclo[23.11.1.1^4,7.0^5,36.0^26,35.0^28,33]octatriaconta-1(36)2,4,9,19,21,25,28(33)29,31,34-undecaen-13-yl acetate]	> 8	0.007	1.4	–	106	83	23	> 1000	0.082	–
CO[C@H]1/C=C/O[C@@]2(C)Oc3c(C)c(O)c4c(=O)c(c5oc6cc(C=Nc7ccc(N8CCOCC8)cc7)cc(N7CCN(C)CC7)c6nc-5c4c3C2=O)NC(=O)/C(C)=C\C=C\[C@H](C)[C@H](O)[C@@H](C)[C@@H](O)[C@@H](C)[C@H](OC(C)=O)[C@@H]1C [Compound 32, (7S,9E,11S,12R,13S,14R,15R,16R,17S,18S,19E,21Z)-2,15,17-trihydroxy-11-methoxy-3,7,12,14,16,18,22-heptamethyl-32-(4-methylpiperazin-1-yl)-30-{N-[4-(morpholin-4-yl)phenyl]carboximidoyl}-6,23,37-trioxo-8,27,38-trioxa-24,34-diazahexacyclo[23.11.1.1^4,7.0^5,36.0^26,35.0^28,33]octatriaconta-1,3,5(36)9,19,21,25,28,30,32,34-undecaen-13-yl acetate]	> 8	0.01	1.74	0.047	116	100	30	330	–	–
CO[C@H]1/C=C/O[C@@]2(C)Oc3c(C)c(O)c4c(=O)c(c5oc6cccc(OCCCCN7CCNCC7)c6nc-5c4c3C2=O)NC(=O)/C(C)=C\C=C\[C@H](C)[C@H](O)[C@@H](C)[C@@H](O)[C@@H](C)[C@H](OC(C)=O)[C@@H]1C [Compound 5d, (7S,9E,11S,12R,13S,14R,15R,16R,17S,18S,19E,21Z)-2,15,17-Trihydroxy-11-methoxy-3,7,12,14,16,18,22-heptamethyl-6,23,37-trioxo-32-[4-(piperazin-1-yl)butoxy]-8,27,38-trioxa-24,34-diazahexacyclo[23.11.1.1^4,7.0^5,36.0^26,35.0^28,33]octatriaconta-1(36)2,4,9,19,21,25,28,30,32,34-undecaen-13-yl acetate]	> 8	0.006	–	–	102	59	29	440	–	–
CO[C@H]1/C=C/O[C@@]2(C)Oc3c(C)c(O)c4c(=O)c(c5oc6cc(C)cc(N7CCN(CC(C)C)CC7)c6nc-5c4c3C2=O)NC(=O)/C(C)=C\C=C\[C@H](C)[C@H](O)[C@@H](C)[C@@H](O)[C@@H](C)[C@H](OC(C)=O)[C@@H]1C [Compound 30c, (7S,9E,11S,12R,13S,14R,15R,16R,17S,18S,19E,21Z)-2,15,17-Trihydroxy-11-methoxy-3,7,12,14,16,18,22,30-octamethyl-32-[4-(2-methylpropyl)piperazin-1-yl]-6,23,37-trioxo-8,27,38-trioxa-24,34-diazahexacyclo[23.11.1.1^4,7.0^5,36.0^26,35.0^28,33]octatriaconta-1(36)2,4,9,19,21,25,28,30,32,34-undecaen-13-yl acetate]	> 8	0.006	<0.6	< 0.016	93	49	10	130	–	–
CO[C@H]1/C=C/O[C@@]2(C)Oc3c(C)c(O)c4c(=O)c(c5oc6cccc(OCc7cccc(CN8CCN(C(=O)CN9CCOCC9)CC8)c7)c6nc-5c4c3C2=O)NC(=O)/C(C)=C\C=C\[C@H](C)[C@H](O)[C@@H](C)[C@@H](O)[C@@H](C)[C@H](OC(C)=O)[C@@H]1C [Compound 11f, (7S,9E,11S,12R,13S,14R,15R,16R,17S,1S,19E,21Z)-2,15,17-Trihydroxy-11-methoxy-3,7,12,14,16,18,22-heptamethyl-32-{[3-({4-[2-(morpholin-4-yl)acetyl]piperazin-1-yl}methyl)phenyl]methoxy}-6,23,37-trioxo-8,27,38-trioxa-24,34-diazahexacyclo[23.11.1.1^4,7.0^5,36.0^26,35.0^28,33]octatriaconta-1(36)2,4,9,19,21,25,28,30,32,34-undecaen-13-yl acetate]	6.2	0.01	0.65	0.024	103	–	39	> 500	–	57
